Here are results for one compound from ChEMBL document CHEMBL5579897, “Design, Synthesis, and Bioevaluation of Novel NLRP3 Inhibitor with IBD Immunotherapy from the Virtual Screen” (J Med Chem, 2024).

Active and inactive are the calls of the source. The rule behind the calls is not given here.

The test system of data set [1] is Mus musculus. In words: Antiinflammatory activity in male wild type C57BL/6 mouse model of DSS-induced ulcerative colitis assessed as reduction in inflammatory cell infiltration at 5 to 20 mg/kg, po administered for 10 days with subsequent treatment of DSS for 7 days followed by normal drinking water for 3 days by H and E staining based analysis. The conditions noted are these: dose 5-20 mg/kg, time 10.0 day. It counts as functional, organism-based.

Data set [2] in a line: Clearance in male C57BL/6J mouse at 5 mg/kg, iv administered as single dose and measured over 24 hrs by LC-MS/MS analysis. It is filed as ADME, organism-based. As to conditions: in vivo.
Data set [3] deals with BMDM. In words: Effect on LPS/nigericin induced NLRP3 intracellular expression in M-CSF induced C57BL/6 mouse BMDM cells at 0.5 to 20 uM preincubated with LPS for 4 hrs followed by compound addition for 30 mins and further incubated with nigericin for 30 mins by Western blot analysis. It counts as functional, cell-based. The conditions noted are these: dose 0.5-20 µM, time 60.0 min. On the technique in general: In western blotting, separated proteins are transferred to a membrane and probed.

The nature of data set [4]: Half life in male C57BL/6J mouse at 5 mg/kg, po administered as single dose and measured over 24 hrs by LC-MS/MS analysis. It is filed as ADME, organism-based. As to conditions: in vivo.
The subject of data set [5] is THP-1. In words: Effect on LPS/nigericin induced intracellular pro-caspase-1 protein expression in PMA-differentiated human THP-1 cell lysate at 0.5 to 20 uM pretreated with compound followed by LPS stimulation for 4 hrs and further stimulated with nigericin by Western blot analysis. It is filed as functional, subcellular. The conditions noted are these: dose 0.5-20 µM.

Data set [6] concerns the target T1, Interferon-inducible protein AIM2 (Homo sapiens) (UniProt O14862).
T1 sequence (whole entry): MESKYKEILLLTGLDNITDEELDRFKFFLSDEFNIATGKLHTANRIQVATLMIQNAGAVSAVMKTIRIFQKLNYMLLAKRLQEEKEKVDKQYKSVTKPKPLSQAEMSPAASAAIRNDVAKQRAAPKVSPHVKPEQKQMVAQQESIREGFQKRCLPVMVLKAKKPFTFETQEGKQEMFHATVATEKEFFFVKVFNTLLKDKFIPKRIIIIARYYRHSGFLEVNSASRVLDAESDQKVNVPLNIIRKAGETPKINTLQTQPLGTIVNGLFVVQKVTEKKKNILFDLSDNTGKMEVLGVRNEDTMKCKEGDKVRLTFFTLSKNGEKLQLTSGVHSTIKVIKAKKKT
Description: Inhibition of poly-(dA: dT)-induced AIM2 inflammasome activation in LPS-primed human THP-1 cells assessed as inhibition of IL-1beta secretion at 5 uM pretreated with LPS for 4 hrs followed by compound addition for 0.5 hrs and further stimulated with poly-(dA: dT) for 6 hrs by Western blot analysis. It is filed as cell-based. As to conditions: time 6.5 hrs.

Data set [7] in a line: Half life in male C57BL/6J mouse at 5 mg/kg, iv administered as single dose and measured over 24 hrs by LC-MS/MS analysis. The conditions noted are these: in vivo. It counts as ADME, organism-based.
Data set [8] deals with Mus musculus. In words: Antiinflammatory activity in male wild type C57BL/6 mouse model of DSS-induced ulcerative colitis assessed as reduction in IL-1beta level in colon at 5 to 20 mg/kg, po administered for 10 days with subsequent treatment of DSS for 7 days followed by normal drinking water for 3 days by immunohistochemistry analysis. It is filed as functional, organism-based. As to conditions: dose 5-20 mg/kg, time 10.0 day.

Data set [9] concerns Mus musculus. In words: Antiinflammatory activity in male wild type C57BL/6 mouse model of DSS-induced ulcerative colitis assessed as reduction in NLRP3 level in colon at 5 to 20 mg/kg, po administered for 10 days with subsequent treatment of DSS for 7 days followed by normal drinking water for 3 days by immunohistochemistry analysis. It is filed as functional, organism-based. As to conditions: dose 5-20 mg/kg, time 10.0 day.

Data set [10] concerns Mus musculus. In words: Antiinflammatory activity in male NLRP3 knockout C57BL/6 mouse model of DSS-induced ulcerative colitis assessed as reduction in daily disease activity index at 20 mg/kg, po administered for 10 days with subsequent treatment of DSS in drinking water. It is filed as functional, organism-based. The conditions noted are these: time 10.0 day.
In data set [11] the test system is Mus musculus. Description: Antiinflammatory activity in male wild type C57BL/6 mouse model of DSS-induced ulcerative colitis assessed as reduction in IL-1beta level in colon at 5 to 20 mg/kg, po administered for 10 days with subsequent treatment of DSS for 7 days followed by normal drinking water for 3 days by immunoblot analysis. It counts as functional, organism-based. As to conditions: dose 5-20 mg/kg, time 10.0 day.

Data set [12] relates to Mus musculus. In words: Antiinflammatory activity in male wild type C57BL/6 mouse model of DSS-induced ulcerative colitis assessed as reduction in NLRP3 level in colon at 5 to 20 mg/kg, po administered for 10 days with subsequent treatment of DSS for 7 days followed by normal drinking water for 3 days by immunoblot analysis. The conditions noted are these: dose 5-20 mg/kg, time 10.0 day. It counts as functional, organism-based.

The subject of data set [13] is THP-1. Description: Inhibition of NLRP3-ASC interaction in LPS/nigericin induced PMA-differentiated human THP-1 cells at 5 uM preincubated with LPS for 4 hrs followed by compound addition for 30 mins and further incubated with nigericin for 30 mins by Co-immunoprecipitation analysis. It is filed as cell-based. The conditions noted are these: time 60.0 min.
Data set [14] concerns THP-1. In words: Inhibition of LPS/nigericin induced caspase-1 P20 release in PMA-differentiated human THP-1 cells at 0.5 to 20 uM preincubated with LPS for 4 hrs followed by compound addition for 30 mins and further incubated with nigericin for 30 mins by Western blot analysis. It counts as functional, cell-based. As to conditions: dose 0.5-20 µM, time 60.0 min.
In data set [15] the test system is Mus musculus. In words: Antiinflammatory activity in male wild type C57BL/6 mouse model of DSS-induced ulcerative colitis assessed as reduction in IL-1beta level in plasma at 5 to 20 mg/kg, po administered for 10 days with subsequent treatment of DSS for 7 days followed by normal drinking water for 3 days by ELISA. It counts as functional, organism-based. The conditions noted are these: dose 5-20 mg/kg, time 10.0 day. For orientation: In an ELISA, binding on a coated surface is turned into a signal by an enzyme label.

Data set [16] has as its system Mus musculus. Description: Antiinflammatory activity in male NLRP3 knockout C57BL/6 mouse model of DSS-induced ulcerative colitis assessed as reduction in IL-1beta level in plasma at 20 mg/kg, po administered for 10 days with subsequent treatment of DSS in drinking water by ELISA. It is filed as functional, organism-based. As to conditions: time 10.0 day.
Data set [17] is described as follows: AUC (0 to infinity) in male C57BL/6J mouse at 5 mg/kg, iv administered as single dose and measured over 24 hrs by LC-MS/MS analysis. It is filed as ADME, organism-based. As to conditions: in vivo.
The subject of data set [18] is BMDM. In words: Cytotoxicity against C57BL/6 mouse BMDM cells assessed as reduction in cell viability at 0.5 to 100 uM measured after 24 hrs by MTT assay. It is filed as toxicity, cell-based. The conditions noted are these: dose 0.5-100 µM.
The test system of data set [19] is THP-1. Description: Effect on LPS/nigericin induced NLRP3 intracellular expression in PMA-differentiated human THP-1 cells at 0.5 to 20 uM preincubated with LPS for 4 hrs followed by compound addition for 30 mins and further incubated with nigericin for 30 mins by Western blot analysis. It counts as functional, cell-based. As to conditions: dose 0.5-20 µM, time 60.0 min.

Data set [20] deals with Mus musculus. Description: Antiinflammatory activity in male NLRP3 knockout C57BL/6 mouse model of DSS-induced ulcerative colitis assessed as reduction in body weight loss at 20 mg/kg, po administered for 10 days with subsequent treatment of DSS in drinking water. It is filed as functional, organism-based. As to conditions: time 10.0 day.
The subject of data set [21] is Mus musculus. Description: Antiinflammatory activity in male wild type C57BL/6 mouse model of DSS-induced ulcerative colitis assessed as reduction in daily disease activity index at 5 to 20 mg/kg, po administered for 10 days with subsequent treatment of DSS for 7 days followed by normal drinking water for 3 days. It counts as functional, organism-based. The conditions noted are these: dose 5-20 mg/kg, time 10.0 day.

The nature of data set [22]: AUC (0 to t) in male C57BL/6J mouse at 5 mg/kg, po administered as single dose and measured over 24 hrs by LC-MS/MS analysis. It is filed as ADME, organism-based. As to conditions: in vivo.

For orientation: clearance means the volume of plasma or blood freed of the substance per unit of time. A lower clearance goes with inefficient removal. The half-life is the time in which the quantity being followed falls by half. Low readings indicate fast loss, high ones slow loss. As usually defined, the AUC(0-inf) is the area under the concentration-time curve extrapolated to infinity. Low values mean less exposure, high ones more exposure. By AUC(0-t) is commonly meant exposure summed from dosing to a finite time, without extrapolation to infinity. For `COc1ccccc1CCNC(=O)/C(=C/c1ccc(Br)cc1)CS(=O)(=O)CCC#N`, the result in the data set on Mus musculus [1], in the data set on Mus musculus [8], with Mus musculus [9], in the data set with Mus musculus [11], in the data set on Mus musculus [12] and with Mus musculus [15] was Active. Moreover, in the data set with Mus musculus [21], the outcome was Active. For the same compound, the clearance in data set [2] is 37.8 mL/min/kg. The outcome in the data set on BMDM [3], with THP-1 [5], in the data set on Mus musculus [10], in the data set with Mus musculus [16], in the data set with THP-1 [19] and in the data set on Mus musculus [20] was inactive. Moreover, the half-life is 0.72 h in [4] and 1.71 h in data set [7]. Further, in data set [6], the inhibition entry is “inactive”. Besides, the inhibition entry with THP-1 [13] and in the data set with THP-1 [14] was “Active” in each case. In addition, in [17], the AUC(0-inf) was found to be 2230 ng·h/mL. Besides, the Activity result in the data set with BMDM [18] is given as “Non-Toxic”. Further, in data set [22], the AUC(0-t) at 24 h was 266 ng·h/mL.
